The test has as its target factor Xa (Homo sapiens, UniProt P00742). Kind of test: Inhibitory action towards factor Xa activity (methods of WO0216312). The following applies: read-out: IC50 value (factor Xa inhibition). It counts as biochemical. The procedure:
Determinations of the inhibitory action towards factor Xa activity were carried out in accordance with the methods described in WO0216312.

In general, IC50 refers to the midpoint of a concentration-inhibition curve.

factor Xa, sequence (P00742 235-488 limits assumed): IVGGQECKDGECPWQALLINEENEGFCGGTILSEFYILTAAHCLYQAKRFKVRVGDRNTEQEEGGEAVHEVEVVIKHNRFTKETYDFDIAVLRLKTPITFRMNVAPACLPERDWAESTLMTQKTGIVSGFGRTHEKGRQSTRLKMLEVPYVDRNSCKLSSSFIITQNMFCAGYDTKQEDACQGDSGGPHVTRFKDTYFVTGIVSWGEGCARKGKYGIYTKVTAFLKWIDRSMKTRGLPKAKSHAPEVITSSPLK
factor Xa, sequence (P00742 41-179 partner limits assumed): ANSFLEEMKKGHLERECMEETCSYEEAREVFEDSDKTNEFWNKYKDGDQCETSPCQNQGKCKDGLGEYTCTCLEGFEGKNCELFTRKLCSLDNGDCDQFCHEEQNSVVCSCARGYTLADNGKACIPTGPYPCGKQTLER

With `CN1CCN(C(=O)CNC(=O)C(Nc2cccc(C(=N)N)c2)c2ccccc2O[C@@H]2O[C@H](CO)[C@@H](O)[C@H](O)[C@H]2O)CC1` (single isomer, unassigned) [Example 1, 2-(3-Carbamimidoyl-phenylamino)-N-[2-(4-methyl-piperazin-1-yl)-2-oxo-ethyl]-2-[2-(3,4,5-trihydroxy-6-hydroxymethyl-tetrahydro-pyran-2-yloxy)-phenyl]-acetamide], the half-maximal inhibitory concentration (IC50) is 0.1 to 10 nM.

The values above are taken from patent publication US20080051388A1, “Novel Compounds That Inhibit Factor Xa Activity” (Morphochem Aktiengesellschaft Fur Kombinatorische Chemie, priority 2004, published 2008).
